≈ marks a conversion by molar mass, not a printed value. Where a SMILES comes first, the peptide text is derived from it. [ ]: non-standard residue; d: D form. ξ: configuration not given here. ξW = NC(Cc1c[nH]c2ccccc12)C(=O)O
Legend:
Enterococcus faecalis = test: Antimicrobial activity against Vancomycin - resistant Enterococcus faecalis assessed as inhibition of bacterial growth; type: functional
Enterococcus faecium [1] = test: Antimicrobial activity against Vancomycin-resistant (Van A) Enterococcus faecium ATCC 51559 assessed as reduction in microbial growth; type: functional
[2] = Binding affinity to D-Ala-D-Lac
Staphylococcus aureus [3] = test: Antibacterial activity against Vancomycin-resistant Staphylococcus aureus assessed as bacterial growth inhibition measured after 48 hrs by microbroth dilution method; type: functional
Staphylococcus aureus [4] = test: Antibacterial activity against Vancomycin-intermediate Staphylococcus aureus assessed as bacterial growth inhibition measured after 24 hrs by microbroth dilution method; type: functional
[5] = Binding affinity to D-Ala-D-Ala
Enterococcus faecium [6] = test: Antimicrobial activity against Vancomycin-resistant Enterococcus faecium assessed as reduction in microbial growth; type: functional
Pseudomonas aeruginosa [7] = test: Antibacterial activity against Pseudomonas aeruginosa ATCC 27853 assessed as bacterial growth inhibition measured after 24 hrs by microbroth dilution method; type: functional
Pseudomonas aeruginosa [8] = test: Synergistic antibacterial activity against multidrug-resistant Pseudomonas aeruginosa ATCC 27853 assessed as reduction in bacterial viability after 12 hrs in presence of 1/2 MIC of vancomycin; type: functional
Pseudomonas aeruginosa [9] = test: Antibacterial activity against extensively drug resitant Pseudomonas aeruginosa; type: functional, organism-based
Staphylococcus aureus [10] = test: Antibacterial activity against Vancomycin-intermediate Staphylococcus aureus NRS1 assessed as bacterial growth inhibition; type: functional
Staphylococcus aureus [11] = test: Antibacterial activity against Vancomycin-intermediate Staphylococcus aureus 3797 assessed as inhibition in bacterial growth; type: functional
Enterococcus faecium [12] = test: Antimicrobial activity against Vancomycin-resistant (Van M) Enterococcus faecium ATCC 51559 assessed as reduction in microbial growth; type: functional
Staphylococcus aureus [13] = test: Antibacterial activity against Vancomycin-intermediate Staphylococcus aureus Mu50 assessed as bacterial growth inhibition; type: functional
Acinetobacter baumannii = test: Antibacterial activity against Acinetobacter baumannii R4942 assessed as reduction in bacterial growth by broth microdilution method; type: functional
Enterobacter cloacae = test: Antibacterial activity against Enterobacter cloacae NDM-1 assessed as reduction in bacterial growth by broth microdilution method; type: functional
Staphylococcus aureus [14] = test: Antimicrobial activity against Vancomycin-resistant Staphylococcus aureus incubated for 20 hrs by broth dilution method; type: functional
[15] = Enterococcus faecium, ATCC 51559, read-out: MIC

CCCCCCCCCCN[C@@]1(C)C[C@H](O[C@H]2[C@H](Oc3c4cc5cc3Oc3ccc(cc3Cl)[C@@H](O)[C@@H](NC(=O)[C@@H](CC(C)C)NC)C(=O)N[C@@H](CC(N)=O)C(=O)N[C@H]5C(=O)N[C@H]3C(=O)N[C@H](C(=O)N[C@H](C(=O)ONCCCNC(=O)[C@H](O)[C@@H](O)[C@H](O[C@@H]5O[C@H](CO)[C@H](O)[C@H](O)[C@H]5O)[C@H](O)CO)c5cc(O)cc(O)c5-c5cc3ccc5O)[C@H](O)c3ccc(c(Cl)c3)O4)O[C@H](CO)[C@@H](O)[C@@H]2O)O[C@@H](C)[C@H]1O
MIC (Enterococcus faecalis): 0.7 µM (≈ 1.4 µg/mL)
MIC (Enterococcus faecium [1]): 1 µM
MIC (Enterococcus faecium [1]; [15]): 0.7 µM
Ka [2]: 6 10^4/M

N=C(N)NCCC[C@H](NC(=O)[C@H](CCCNC(=N)N)NC(=O)[C@H](Cc1c[nH]c2ccccc12)NC(=O)[C@H](Cc1c[nH]c2ccccc12)NC(=O)[C@H](CCCNC(=N)N)NC(=O)[C@H](CCCNC(=N)N)NC(=O)[C@H](Cc1c[nH]c2ccccc12)NC(=O)C(Cc1c[nH]c2ccccc12)NC(=O)[C@H](CCCNC(=N)N)NC(=O)[C@H](Cc1c[nH]c2ccccc12)NC(=O)[C@H](Cc1c[nH]c2ccccc12)NC(=O)[C@@H](N)CCCNC(=N)N)C(=O)O (some centres not stated) (H-RWWR[ξW]WRRWWRR-OH)
MIC (Staphylococcus aureus [3]): 1 µg/mL (≈ 0.483 µM)
MIC (Staphylococcus aureus [4]): 4 µg/mL (≈ 1.93 µM)

CN[C@H](CC(C)C)C(=O)N[C@H]1C(=O)N[C@@H](CC(N)=O)C(=O)N[C@H]2C(=N)N[C@H]3C(=O)N[C@H](C(=O)N[C@H](C(=O)O)c4cc(O)cc(O)c4-c4cc3ccc4O)[C@H](O)c3ccc(c(Cl)c3)Oc3cc2cc(c3O)Oc2ccc(cc2Cl)[C@H]1O
Ka [2]: 6.9 10^4/M
Ka [5]: 7.3 10^4/M

CN[C@H](CC(C)C)C(=O)N[C@H]1C(=O)N[C@@H](CC(N)=O)C(=O)N[C@H]2C(=O)N[C@H]3C(=O)N[C@H](C(=O)N[C@H](C(=O)NCCC[N+](C)(C)C)c4cc(O)cc(O)c4-c4cc3ccc4O)[C@H](O)c3ccc(c(Cl)c3)Oc3cc2cc(c3O[C@@H]2O[C@H](CO)[C@@H](O)[C@H](O)[C@H]2O[C@H]2C[C@](C)(NCc3ccc(-c4ccc(Cl)cc4)cc3)[C@H](O)[C@H](C)O2)Oc2ccc(cc2Cl)[C@H]1O
MIC (Enterococcus faecium [1]; [15]): 0.01 µg/mL
MIC (Enterococcus faecium [6]): 0.01 µg/mL

CC(=O)N[C@@H]1[C@H](Oc2c3cc4cc2Oc2ccc(cc2Cl)[C@@H](O[C@@H]2O[C@@H](CO)[C@@H](O)[C@H](O)[C@@H]2NC(C)=O)[C@@H]2NC(=O)[C@H](NC(=O)[C@@H]4NC(=O)[C@H]4NC(=O)[C@@H](Cc5ccc(c(Cl)c5)O3)NC(=O)[C@H](N)c3ccc(O)c(c3)Oc3cc(O)cc4c3)c3ccc(O)c(c3)-c3c(O[C@H]4O[C@H](CO)[C@@H](O)[C@@H](O)[C@@H]4O)cc(O)cc3[C@@H](C(=O)O)NC2=O)O[C@@H](CO)[C@@H](O)[C@@H]1O
MIC (Pseudomonas aeruginosa [7]): 256 µg/mL (≈ 145 µM)
fractional inhibitory concentration index (FICI) (Pseudomonas aeruginosa [8]): <0.5

H-IRIKIRIK-OH
MIC (Staphylococcus aureus [3]): 8 µg/mL
MIC (Staphylococcus aureus [4]): 8 µg/mL

POLYMYXIN B
MIC (Pseudomonas aeruginosa [9]): 2 µg/mL

CCCCCCCCCCC(=O)N[C@@H](CCCCN)C(=O)N[C@@H](CCCCN)C(=O)NC(CCCCNC(=O)[C@H]1NC(=O)[C@H]2NC(=O)[C@H](NC(=O)[C@@H]3NC(=O)[C@H](CC(N)=O)NC(=O)[C@H](NC(=O)[C@@H](CC(C)C)NC)[C@H](O)c4ccc(c(Cl)c4)Oc4cc3cc(c4O[C@@H]3O[C@H](CO)[C@@H](O)[C@H](O)[C@H]3O[C@H]3C[C@](C)(N)[C@H](O)[C@H](C)O3)Oc3ccc(cc3Cl)[C@H]2O)c2ccc(O)c(c2)-c2c(O)cc(O)cc21)C(N)=O (some centres not stated)
MIC (Staphylococcus aureus [10]): 0.03 µg/mL
MIC (Staphylococcus aureus [11]): 0.06 µg/mL
MIC (Enterococcus faecium [1]; [15]): 2 µg/mL

CN[C@H](CC(C)C)C(=O)N[C@H]1C(=O)N[C@@H](CC(N)=O)C(=O)N[C@H]2C(=S)N[C@H]3C(=O)N[C@H](C(=O)N[C@H](C(=O)O)c4cc(O)cc(O)c4-c4cc3ccc4O)[C@H](O)c3ccc(c(Cl)c3)Oc3cc2cc(c3O)Oc2ccc(cc2Cl)[C@H]1O
Ka [2]: 1.1 10^1/M
Ka [5]: 1.7 10^2/M

CN[C@H](CC(C)C)C(=O)N[C@H]1C(=O)N[C@@H](CC(N)=O)C(=O)N[C@H]2C(=O)N[C@H]3C(=O)N[C@H](C(=O)N[C@H](C(=O)O)c4cc(O)c(CNCCO[C@@H]5O[C@H](CO)[C@H](O)[C@H](O)[C@H]5O)c(O)c4-c4cc3ccc4O)[C@H](O)c3ccc(c(Cl)c3)Oc3cc2cc(c3O[C@@H]2O[C@H](CO)[C@@H](O)[C@H](O)[C@H]2O[C@H]2C[C@](C)(NCc3ccc(-c4ccc(C(F)(F)F)cc4)cc3)[C@H](O)[C@H](C)O2)Oc2ccc(cc2Cl)[C@H]1O
MIC (Enterococcus faecium [12]): 2 µg/mL
MIC (Enterococcus faecium [1]): ≤ 0.06 µg/mL
MIC (Enterococcus faecium [1]; [15]): 1 µg/mL
MIC (Staphylococcus aureus [13]): 0.25 µg/mL (≈ 0.13 µM)

CN[C@H](CC(C)C)C(=O)N[C@H]1C(=O)N[C@@H](CC(N)=O)C(=O)N[C@H]2C(=O)N[C@H]3C(=O)N[C@H](C(=O)N[C@H](C(=O)O)c4cc(O)c(CN[C@H]5C(O)O[C@H](CO)[C@H](O)[C@@H]5O)c(O)c4-c4cc3ccc4O)[C@H](O)c3ccc(c(Cl)c3)Oc3cc2cc(c3O[C@@H]2O[C@H](CO)[C@@H](O)[C@H](O)[C@H]2O[C@H]2C[C@](C)(NCc3ccc(-c4ccc(Cl)cc4)cc3)[C@H](O)[C@H](C)O2)Oc2ccc(cc2Cl)[C@H]1O (some centres not stated)
MIC (Enterococcus faecium [12]): 4 µg/mL
MIC (Enterococcus faecium [1]): 0.25 µg/mL
MIC (Enterococcus faecium [1]; [15]): 2 µg/mL
MIC (Staphylococcus aureus [13]): 0.12 µg/mL (≈ 0.0652 µM)

CN[C@H](CC(C)C)C(=O)N[C@H]1C(=O)N[C@@H](CC(N)=O)C(=O)N[C@H]2CN[C@H]3C(=O)N[C@H](C(=O)N[C@H](C(=O)O)c4cc(O)cc(O)c4-c4cc3ccc4O)[C@H](O)c3ccc(c(Cl)c3)Oc3cc2cc(c3O)Oc2ccc(cc2Cl)[C@H]1O
Ka [2]: 5.2 10^3/M
Ka [5]: 4.8 10^3/M

CN[C@H](CC(C)C)C(=O)N[C@H]1C(=O)N[C@@H](CC(N)=O)C(=O)N[C@H]2C(=O)N[C@H]3C(=O)N[C@H](C(=O)N[C@H](C(=O)NC[C@H]4OB(O)c5ccccc54)c4cc(O)cc(O)c4-c4cc3ccc4O)[C@H](O)c3ccc(c(Cl)c3)Oc3cc2cc(c3O[C@@H]2O[C@H](CO)[C@@H](O)[C@H](O)[C@H]2O[C@H]2C[C@](C)(N)[C@H](O)[C@H](C)O2)Oc2ccc(cc2Cl)[C@H]1O
MIC (Staphylococcus aureus [11]): 1 µM

CN[C@H](CC(C)C)C(=O)N[C@H]1C(=O)N[C@@H](CC(N)=O)C(=O)N[C@H]2C(=O)N[C@H]3C(=O)N[C@H](C(=O)N[C@H](C(=O)O)c4cc(O)cc(O)c4-c4cc3ccc4O)[C@H](O)c3ccc(c(Cl)c3)Oc3cc2cc(c3O[C@@H]2O[C@H](CO)[C@@H](O)[C@H](O)[C@H]2O[C@H]2C[C@](C)(NCc3cccc(OCCSSCCOc4cccc(CN[C@@]5(C)C[C@H](O[C@H]6[C@H](Oc7c8cc9cc7Oc7ccc(cc7Cl)[C@@H](O)[C@@H](NC(=O)[C@@H](CC(C)C)NC)C(=O)N[C@@H](CC(N)=O)C(=O)N[C@H]9C(=O)N[C@H]7C(=O)N[C@H](C(=O)N[C@H](C(=O)O)c9cc(O)cc(O)c9-c9cc7ccc9O)[C@H](O)c7ccc(c(Cl)c7)O8)O[C@H](CO)[C@@H](O)[C@@H]6O)O[C@@H](C)[C@H]5O)c4)c3)[C@H](O)[C@H](C)O2)Oc2ccc(cc2Cl)[C@H]1O
MIC (Staphylococcus aureus [10]): 8 µg/mL
MIC (Enterococcus faecium [6]; Enterococcus faecium, read-out: MIC): 1 µg/mL

CCCCCCCC[N+](C)(C)CCCNC(=O)[C@H]1NC(=O)[C@H]2NC(=O)[C@H](NC(=O)[C@@H]3NC(=O)[C@H](CC(N)=O)NC(=O)[C@H](NC(=O)[C@@H](CC(C)C)NC)[C@H](O)c4ccc(c(Cl)c4)Oc4cc3cc(c4O[C@@H]3O[C@H](CO)[C@@H](O)[C@H](O)[C@H]3O[C@H]3C[C@](C)(N)[C@H](O)[C@H](C)O3)Oc3ccc(cc3Cl)[C@H]2O)c2ccc(O)c(c2)-c2c(O)cc(O)cc21
MIC (Staphylococcus aureus [10]): 0.4 µM
MIC (Acinetobacter baumannii): 7 µM
MIC (Enterococcus faecium [1]; [15]): 12 µM
MIC (Enterobacter cloacae): > 100 µM
MIC (Staphylococcus aureus [14]): 0.3 µM

CCCCCCCCN(CCCNC(=O)[C@H]1NC(=O)[C@H]2NC(=O)[C@H](NC(=O)[C@@H]3NC(=O)[C@H](CC(N)=O)NC(=O)[C@H](NC(=O)[C@@H](CC(C)C)NC)[C@H](O)c4ccc(c(Cl)c4)Oc4cc3cc(c4O)Oc3ccc(cc3Cl)[C@H]2O)c2ccc(O)c(c2)-c2c(O)cc(O)cc21)CCCNC(=O)[C@H]1NC(=O)[C@H]2NC(=O)[C@H](NC(=O)[C@@H]3NC(=O)[C@H](CC(N)=O)NC(=O)[C@H](NC(=O)[C@@H](CC(C)C)NC)[C@H](O)c4ccc(c(Cl)c4)Oc4cc3cc(c4O)Oc3ccc(cc3Cl)[C@H]2O)c2ccc(O)c(c2)-c2c(O)cc(O)cc21
MIC (Staphylococcus aureus [11]): 0.6 µM
MIC (Enterococcus faecium [1]; [15]): 2.5 µM
Ka [2]: 5.7 10^3/M
Ka [5]: 1 10^5/M
